We go through 8 compounds from ChEMBL document CHEMBL1128803 (Bioorg Med Chem Lett, 1995).

Holding throughout (type): protein assay
Assay [1] addresses Phosphodiesterase 4 (Mus musculus, UniProt Q8VBU5+Q3UEI1+O89084+Q01063). Nature of the assay: Inhibition of [3H]rolipram binding to Phosphodiesterase 4 (PDE IV).
Assay [2] deals with Phosphodiesterase 4 (Homo sapiens, UniProt P27815+Q08499+Q07343+Q08493). Nature of the assay: Inhibition of Phosphodiesterase 4.
Assay [3] has as its target Phosphodiesterase 3 (Homo sapiens) (UniProt Q14432+Q13370). Nature of the assay: Inhibition of Phosphodiesterase 3 (PDE III) at 100 uM.

As usually defined, the IC50 is the point on the concentration scale where inhibition reaches its midpoint. Lower therefore signals greater potency. As usually defined, the inhibition is the change of the read-out against control, counted positive when it falls.

On to `COc1ccc(/C=C2\C(=O)Nc3ccccc32)cc1OC1CC2CCC1C2` (stereo unspecified), for which the IC50 is 3.2 µM in assay [1] and 3.7 µM in assay [2].
Turning to `COc1ccc(/C=C2\C(=O)Nc3ccc([N+](=O)[O-])cc32)cc1OC1CC2CCC1C2` (stereo unspecified), the concentration for half-maximal inhibition (IC50) in assay [1] was found to be 62 µM; in assay [2] it was 1.2 µM. In addition, the inhibition in assay [3] was determined as 18%.
Turning to `COc1ccc(C2CNC(=O)C2)cc1OC1CCCC1` (stereo unspecified), in assay [3], the inhibition came to 23%.
In the case of `COc1ccc(/C=C2/C(=O)Nc3ccccc32)cc1OC1CC2CCC1C2` (stereo unspecified), the values for the IC50 in assay [1] and in assay [2] were 4.6 µM and 0.48 µM, respectively. Moreover, the inhibition in assay [3] turned out to be 42%.
On to `COc1ccc(/C=C2\C(=O)Nc3ccc(Br)cc32)cc1OC1CC2CCC1C2` (stereo unspecified), for which the IC50 in assay [1] came out at 50 µM; in assay [2] it was 1.7 µM. In assay [3], the inhibition is 17%.
On to `COc1ccc(/C=C2\C(=O)N(C)c3ccc(Cl)cc32)cc1OC1CC2CCC1C2` (stereo unspecified), for which the IC50 amounted to 58 µM in assay [1] and 3.4 µM in assay [2]. In assay [3], the inhibition is -9%.
For `COc1ccc(/C=C2/C(=O)N(C)c3ccc([N+](=O)[O-])cc32)cc1OC1CC2CCC1C2` (stereo unspecified), in that order: 66 µM, 7.1 µM and 25%.
For `COc1ccc(/C=C2\C(=O)N(C)c3ccc(Br)cc32)cc1OC1CC2CCC1C2` (stereo unspecified), in that order: 57 µM, 3.6 µM and -7%.
